The source of these data is patent publication US12280066B2, “Methods and compositions related to glucocorticoid receptor antagonists and breast cancer” (The University of Chicago, priority 2010, dated 2025).

For test [1], the system named is T-R MCF-7 (ER+/PR+/GR+) cells. Briefly: Annexin V FACS apoptosis assay, T-R MCF-7 cells. The format is cell-based. As to conditions: mifepristone/paclitaxel 10^-6 M compared to paclitaxel alone, 20 hours, P=0.028. The protocol: (§1) Apoptosis was measured using FITC conjugated-anti-Annexin V antibody labeling followed FACS analysis to determine the percentage of the total cell population undergoing apoptosis after 20 hours of treatment.

In test [2] the test system is Parental MCF-7 (ER+/PR+/GR+) cells. As to the kind of experiment: Annexin V FACS apoptosis assay, parental MCF-7 cells. Type of test: cell-based. As to conditions: mifepristone/paclitaxel 10^-6 M compared to paclitaxel alone, 20 hours. The protocol: as §1
Test [3] deals with glucocorticoid receptor (GR). As to conditions: literature (Moran et al., 2000; Mikosz et al., 2001); cited from earlier work.
For test [4], the system named is MDA-MB-231 human breast cancer cells. Briefly: MDA-MB-231 xenograft tumor volume in SCID mice. Conditions: mifepristone 15 mg/kg i.p. two hours prior to paclitaxel 10 mg/kg, five successive days, compared to paclitaxel alone, P=0.013.

For the molecule `CC#C[C@]1(O)CC[C@H]2[C@@H]3CCC4=CC(=O)CCC4=C3[C@@H](c3ccc(N(C)C)cc3)C[C@@]21C` [mifepristone], the “apoptosis (percentage of total cell population undergoing apoptosis)” value is reported as “Significantly more apoptosis” in test [1], “increases” in test [1] (listed as Mifepristone), “No difference” in test [2] and “not parental MCF-7” in test [2] (listed as Mifepristone). The “reversal of GR-initiated cell survival signaling” value in test [3] is reported as “reverses cell survival signaling pathways initiated by the GR”. For the same molecule, the “tumor volume over time” value in test [4] is on record as “increases MDA-MB-231 tumor susceptibility to paclitaxel”; in test [4] (listed as Mifepristone), “significantly decreased tumor volume over time”.
